Measurements published in patent US7718715B2, “pH-modified latex comprising a synergistic combination of biocides” (S.C. Johnson & Son, Inc., priority 2004, dated 2010).

Experiments:
Assay type in all cases: cell-based
Candida albicans #10231 = assay: Challenge Test (Antimicrobial Effectiveness Test), yeast inoculum; parameters: key to Challenge Test result: Yeast C. albicans: Fail: Recovery of surviving organisms at 14 days was a failing result for the challenge test; conditions: for Challenge Test result: Yeast C. albicans: stabilized acrylic latex A, DN 22%
Procedure: The following cultures were obtained from American Type Culture Collection (ATCC) at 10801 University Boulevard, Manassas, Va. 20110-2209: Escherichia coli #11229, Pseudomonas aeruginosa #15442, Candida albicans #10231, Aspergillus niger #6275.
The yeast inoculum was 0.10 ml of a 72-hr±4 hr culture of C. albicans in 25 grams of sample to give approximately 2×10^5 CFU/g. The C. albicans culture was grown in Potato Dextrose Broth (Difco Laboratories, Detroit, Mich.) at 28° C.
(§1) Each of the 25-g samples were inoculated or challenged with 0.10 ml of the bacterial inoculum, the yeast inoculum, and the mold inoculum respectively on day-0 and day-14. All samples were stored at ambient temperature. Each sample (10 microliter) was streaked on appropriate agar plates (bacteria on Tryptic Soy Agar (Difco Laboratories, Detroit, Mich.) plates with neutralizer and yeast/mold on Potato Dextrose Agar (Difco Laboratories, Detroit, Mich.) plates with neutralizer) on day-1, day-2, day-3, day-7, day-14, day-15, day-16, day-17, day-21, and day-28 to test for survivors. Streaked plates were incubated at appropriate temperature and time (48-hr at 35±2° C. for bacteria and 72-hr at 28±2° C. for yeast/mold). On day-14, each sample was re-inoculated with appropriate inoculum after streaking on agar plates. Plates were read after incubation time. Recovery of surviving organisms at 14 days was a failing result for the challenge test.
Biocides were always added after the reaction has been completed and after the batch has been cooled to <50° C. The desired temperature was dependent on the specific biocide. Many biocides become deactivated if exposed to high temperatures for an extended time. Each biocide was diluted with about 5× its weight with DI water and slowly added to the batch with good agitation. The dilution is to prevent the biocide from shocking the latex. The batch was mixed for a minimum of 20 minutes after the biocide was added to ensure good incorporation. If any temporary destabilization to the latex had occurred, it had time to recover prior to filtration.
The Challenge Test is a qualitative laboratory procedure used to differentiate poorly and marginally preserved products from well-preserved products. Products are intentionally inoculated with test organisms and then evaluated by use of streak plating technique to determine if microbial reduction has been attained.

C. albicans & A. niger = assay: Challenge Test end point on yeast and mold and Synergy Index (Kull); conditions: Bioban CS-1135 acting alone (QA); test stabilized acrylic latex A
Procedure: as §1, with “On day-14, each sample was re-inoculated with appropriate inoculum after streaking on agar plates.” left out, “Recovery of surviving organisms at 14 days was a failing result for the challenge test.” left out
Synergism was determined by the method described by F. C. […] Eisman, H. D. Sylwestrowicz, and R. L. Mayer in Applied Microbiology, Volume 9, pages 538-541, 1961 using the ratio determined by • Synergy Index (SI)=Qa/QA+Qb/QB=1 is additivity, <1 is synergism, and >1 is antagonism • where, • Qa=concentration of compound A, in the mixture, producing an end point • QA=concentration of compound A, acting alone, producing an end point • Qb=concentration of compound B, in the mixture, producing an end point • QB=concentration of compound B, acting alone, producing an end point

[1] = system: Escherichia coli, Pseudomonas aeruginosa, Candida albicans, Aspergillus niger; assay: Challenge Test, all test organisms; conditions: stabilized acrylic latex A
Procedure: The following cultures were obtained from American Type Culture Collection (ATCC) at 10801 University Boulevard, Manassas, Va. 20110-2209: Escherichia coli #11229, Pseudomonas aeruginosa #15442, Candida albicans #10231, Aspergillus niger #6275. The bacterial inoculum was 0.10 ml of a 1:1 mixture of the 24-hr±4 hr culture of E. coli and P. aeruginosa in 25 grams of sample to give approximately 4×10^6 CFU/g. Both E. coli culture and the P. aeruginosa culture were grown in Nutrient Broth (Difco Laboratories, Detroit, Mich.) at 35° C. The yeast inoculum was 0.10 ml of a 72-hr±4 hr culture of C. albicans in 25 grams of sample to give approximately 2×10^5 CFU/g. The C. albicans culture was grown in Potato Dextrose Broth (Difco Laboratories, Detroit, Mich.) at 28° C. The mold inoculum was 0.10 ml of A. niger culture specimen in 25 grams of sample to give approximately 2×10^5 CFU/g. The culture specimen was obtained from 7-day-old A. niger culture grown on Sabouraud Dextrose Agar (Difco Laboratories, Detroit, Mich.) with 0.2% Triton X-100 in 0.85% saline. Each of the 25-g samples were inoculated or challenged with 0.10 ml of the bacterial inoculum, the yeast inoculum, and the mold inoculum respectively on day-0 and day-14. All samples were stored at ambient temperature. […] Plates were read after incubation time. […]

SMILES | Challenge Test result: Yeast C. albicans (Candida albicans #10231; 0.10% Bioban CS-1135, 0.00% Bronopol, pH 6.68) | Challenge Test result: Yeast C. albicans (Candida albicans #10231; 0.20% Bioban CS-1135, 0.00% Bronopol, pH 6.69) | Challenge Test result: Yeast C. albicans (Candida albicans #10231; 0.80% Bioban CS-1135, 0.00% Bronopol, pH 6.62) | Challenge Test result: Yeast C. albicans (Candida albicans #10231; 1.20% Bioban CS-1135, 0.00% Bronopol, pH 6.64) | Challenge Test result: Yeast C. albicans (Candida albicans #10231; 2.00% Bioban CS-1135, 0.00% Bronopol, pH 6.82) | killing of yeast (C. albicans) (Candida albicans #10231; BIOBAN CS-1135 at 1.2%, acrylic latex A) | control of Candida albicans (Candida albicans #10231; maximum allowable level, test stabilized acrylic latex) | Compound A end-point in % (C. albicans & A. niger) | concentration required to kill all organisms [1] | Challenge Test result: Yeast C. albicans (Candida albicans #10231; 0.10% Bronopol (30% active), 0.00% Bioban CS-1135, pH 6.64, Table 1) | Challenge Test result: Yeast C. albicans (Candida albicans #10231; 0.10% Bronopol (30% active), 0.00% Dowicil 75, pH 6.64, Table 3) | Challenge Test result: Yeast C. albicans (Candida albicans #10231; 0.20% Bronopol (30% active), 0.00% Bioban CS-1135, pH 6.65, Table 1) | Challenge Test result: Yeast C. albicans (Candida albicans #10231; 0.20% Bronopol (30% active), 0.00% Dowicil 75, pH 6.65, Table 3) | Challenge Test result: Yeast C. albicans (Candida albicans #10231; 0.50% Bronopol (30% active), 0.00% Bioban CS-1135, pH 6.58, Table 1) | Challenge Test result: Yeast C. albicans (Candida albicans #10231; 0.50% Bronopol (30% active), 0.00% Dowicil 75, pH 6.58, Table 3) | Challenge Test result: Yeast C. albicans (Candida albicans #10231; 0.80% Bronopol (30% active), 0.00% Bioban CS-1135, pH 6.57, Table 1) | Challenge Test result: Yeast C. albicans (Candida albicans #10231; 0.80% Bronopol (30% active), 0.00% Dowicil 75, pH 6.57, Table 3) | Challenge Test result: Yeast C. albicans (Candida albicans #10231; 1.20% Bronopol (30% active), 0.00% Bioban CS-1135, pH 6.57, Table 1) | Challenge Test result: Yeast C. albicans (Candida albicans #10231; 1.20% Bronopol (30% active), 0.00% Dowicil 75, pH 6.57, Table 3)
CC1(C)COCN1 [Bioban CS-1135, 4,4-dimethyl-oxazolidine] | Fail | Fail | Fail | Fail | Pass | failed to kill | failed to control | 2% | 2.0% |  |  |  |  |  |  |  |  |  | 
O=[N+]([O-])C(Br)(CO)CO [Bronopol, 2-bromo-2-nitro-1,3-propanediol] |  |  |  |  |  |  |  |  | 0.5% | Fail | Pass | Fail | Pass | Pass | Pass | Pass | Pass | Pass | Pass
